The results in this text go back to ChEMBL document CHEMBL1671837, “[I]-Celecoxib Analogues as SPECT Tracers of Cyclooxygenase-2 in Inflammation” (ACS Med Chem Lett, 2011).

Active and inactive are the calls of the source. The calls are words filed in the database; no cut-off is given here.

The target in assay [1] is T1, Prostaglandin G/H synthase 1 (Ovis aries, UniProt P05979).
T1 sequence (P05979 whole entry): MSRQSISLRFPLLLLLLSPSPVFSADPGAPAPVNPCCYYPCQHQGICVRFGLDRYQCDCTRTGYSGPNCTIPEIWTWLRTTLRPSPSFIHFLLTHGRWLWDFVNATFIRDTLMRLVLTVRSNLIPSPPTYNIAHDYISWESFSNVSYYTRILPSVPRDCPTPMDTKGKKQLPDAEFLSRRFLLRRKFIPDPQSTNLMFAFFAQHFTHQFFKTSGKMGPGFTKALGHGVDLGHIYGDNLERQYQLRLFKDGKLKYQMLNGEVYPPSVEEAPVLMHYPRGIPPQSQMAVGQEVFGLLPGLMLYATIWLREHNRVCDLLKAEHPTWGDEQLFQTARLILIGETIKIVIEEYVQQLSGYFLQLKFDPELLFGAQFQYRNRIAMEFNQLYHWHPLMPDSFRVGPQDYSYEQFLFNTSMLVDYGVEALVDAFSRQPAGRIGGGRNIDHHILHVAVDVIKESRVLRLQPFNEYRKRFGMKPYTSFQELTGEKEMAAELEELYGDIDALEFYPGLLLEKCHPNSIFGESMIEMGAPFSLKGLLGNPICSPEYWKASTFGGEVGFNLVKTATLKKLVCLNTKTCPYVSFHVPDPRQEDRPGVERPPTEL
The experiment in a line: Inhibition of ovine purified COX1 after 20 mins.

For assay [2], the target named is T2, Prostaglandin G/H synthase 2 (Mus musculus, UniProt Q05769).
T2 sequence (Q05769 whole entry): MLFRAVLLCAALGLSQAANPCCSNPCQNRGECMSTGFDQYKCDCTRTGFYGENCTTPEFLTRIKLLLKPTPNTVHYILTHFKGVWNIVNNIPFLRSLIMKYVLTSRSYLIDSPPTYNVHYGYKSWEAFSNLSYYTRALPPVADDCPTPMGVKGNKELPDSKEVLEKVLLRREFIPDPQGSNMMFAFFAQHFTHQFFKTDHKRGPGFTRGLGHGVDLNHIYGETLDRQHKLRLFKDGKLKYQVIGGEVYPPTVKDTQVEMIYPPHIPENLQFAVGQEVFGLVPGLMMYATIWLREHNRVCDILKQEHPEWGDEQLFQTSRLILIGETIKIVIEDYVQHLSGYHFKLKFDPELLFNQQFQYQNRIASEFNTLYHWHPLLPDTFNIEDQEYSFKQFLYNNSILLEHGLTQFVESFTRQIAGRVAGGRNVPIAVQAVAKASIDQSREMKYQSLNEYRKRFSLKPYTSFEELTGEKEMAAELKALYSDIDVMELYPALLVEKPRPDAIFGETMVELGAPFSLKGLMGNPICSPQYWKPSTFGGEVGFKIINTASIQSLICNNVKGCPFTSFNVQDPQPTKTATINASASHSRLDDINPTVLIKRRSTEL
Briefly: Inhibition of COX2 in mouse LPS-stimulated RAW264.7 cells after 30 mins. It counts as cell-based.

For assay [3], the target named is T3, Prostaglandin G/H synthase 1 (Mus musculus) (UniProt P22437).
T3 sequence (whole entry): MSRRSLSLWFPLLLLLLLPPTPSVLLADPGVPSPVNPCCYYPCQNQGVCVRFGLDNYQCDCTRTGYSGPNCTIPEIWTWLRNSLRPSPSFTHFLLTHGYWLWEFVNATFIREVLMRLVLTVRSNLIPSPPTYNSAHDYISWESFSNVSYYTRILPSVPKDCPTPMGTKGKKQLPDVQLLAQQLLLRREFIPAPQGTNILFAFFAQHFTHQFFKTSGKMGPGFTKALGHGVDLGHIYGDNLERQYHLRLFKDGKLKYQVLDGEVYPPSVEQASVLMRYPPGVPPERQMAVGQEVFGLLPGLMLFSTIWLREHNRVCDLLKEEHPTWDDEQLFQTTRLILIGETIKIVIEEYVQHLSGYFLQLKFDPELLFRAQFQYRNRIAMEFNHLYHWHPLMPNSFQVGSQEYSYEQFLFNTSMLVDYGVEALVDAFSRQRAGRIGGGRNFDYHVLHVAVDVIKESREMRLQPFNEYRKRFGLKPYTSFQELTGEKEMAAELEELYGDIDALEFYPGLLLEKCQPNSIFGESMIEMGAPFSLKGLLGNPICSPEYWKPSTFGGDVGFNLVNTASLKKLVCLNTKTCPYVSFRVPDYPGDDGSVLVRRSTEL
Briefly: Inhibition of COX1 in mouse LPS-stimulated RAW264.7 cells at up to 5 uM after 30 mins. It counts as cell-based.

As for `NS(=O)(=O)c1ccc(-n2nc(CCC(=O)O)cc2-c2ccc(I)cc2)cc1`, in assay [1], the IC50 is over 4 µM. In the case of `COC(=O)c1cc(-c2ccc(I)cc2)n(-c2ccc(S(C)(=O)=O)cc2)n1`, in assay [1], the IC50 was over 4 µM.

In the case of `CCOC(=O)c1cc(-c2ccc(I)cc2)n(-c2ccc(S(N)(=O)=O)cc2)n1`, the IC50 in assay [1] was over 4 µM; in assay [2], 2.7 µM. In the case of `CS(=O)(=O)c1ccc(-n2nc(C(F)(F)F)cc2-c2ccc(I)cc2)cc1`, the IC50 in assay [1] is over 4 µM; in assay [2], 0.03 µM. In addition, in assay [3], the inhibition result was “inactive”.

In turn, `COC(=O)c1cc(-c2cccc(I)c2)n(-c2ccc(S(N)(=O)=O)cc2)n1` came in with a half-maximal inhibitory concentration (IC50) in assay [1] of over 4 µM.

`COC(=O)c1cc(-c2ccc(I)cc2)n(-c2ccc(S(N)(=O)=O)cc2)n1` yielded a concentration for half-maximal inhibition (IC50) in assay [1] of over 4 µM. In assay [1], `COC(=O)c1cc(-c2cccc(I)c2)n(-c2ccc(S(C)(=O)=O)cc2)n1` displayed an IC50 of over 4 µM. In assay [1], `NS(=O)(=O)c1ccc(-n2nc(CCC(=O)O)cc2-c2cccc(I)c2)cc1` had an IC50 of over 4 µM. For `CS(=O)(=O)c1ccc(-n2nc(C(F)(F)F)cc2-c2cccc(I)c2)cc1`, the IC50 in assay [1] was over 4 µM.

For orientation: IC50 means the midpoint of a concentration-inhibition curve. The low end stands for greater potency, the high end for weaker potency.
